According to ChEMBL document CHEMBL3727346, “6-(pyridinyl)-4-pyrimidone derivates as tau protein kinase 1 inhibitors” (2011):
Calls of active or inactive are those of the source. How the calls were made is not given here.

Tests used:
[1] = target: Glycogen synthase kinase-3 beta splice variant X1 (Bos taurus, UniProt A0A059UE90); experiment: (§1) Inhibition of bovine cerebral TPK1 assessed as reduction in P-GS1 phosphorylation using [32gammaP]ATP incubated for 2 hrs by liquid scintillation counting method
[2] = target: Glycogen synthase kinase-3 beta splice variant X1 (Bos taurus) (UniProt A0A059UE90); experiment: as §1

Compound | IC50 [1] [nM] | inhibition [2]
Cn1c(N2CCO[C@@H](c3cc4ccccc4o3)C2)nc(-c2ccncc2F)cc1=O | 7.9 | –
CN(c1ccc([C@H]2CN(c3nc(-c4ccncc4F)cc(=O)n3C)CCO2)cc1)c1ccccn1 | 5.4 | –
Cc1nc(-c2ccc([C@H]3CN(c4nc(-c5ccncc5F)cc(=O)n4C)CCN3)cc2)no1 | 2.9 | –
Cn1c(N2CCN[C@@H](c3ccc(N4CCCCC4)cc3)C2)nc(-c2ccncc2F)cc1=O | 3.7 | –
Cn1c(N2CCOC(c3ccc4c(c3)CCC(=O)N4)C2)nc(-c2ccncc2F)cc1=O (racemic) | 1.2 | –
Cn1c(N2CCO[C@@H](c3ccc(N4CCC(N5CCCC5)CC4)cc3)C2)nc(-c2ccncc2F)cc1=O | 1.7 | –
CN(c1ccc([C@H]2CN(c3nc(-c4ccncc4F)cc(=O)n3C)CCO2)cc1)[C@@H]1CCOC1 | 3.9 | –
Cn1c(N2CCO[C@@H](c3c(F)cccc3Cl)C2)nc(-c2ccncc2F)cc1=O | 1.4 | –
Cn1c(N2CCO[C@@H](c3ccc(OCCN4CCOCC4)cc3)C2)nc(-c2ccncc2F)cc1=O | 1.1 | –
Cn1c(N2CCN[C@@H](c3ccc(N4CCN(c5ccccc5)CC4)cc3)C2)nc(-c2ccncc2F)cc1=O | 0.53 | –
Cn1c(N2CCN[C@@H](c3ccc(-c4ncon4)cc3)C2)nc(-c2ccncc2F)cc1=O | 4.8 | –
COc1ccc(-c2ccc([C@H]3CN(c4nc(-c5ccncc5F)cc(=O)n4C)CCN3)cc2)cc1 | 0.73 | –
CN(C)[C@@H]1CCN(c2ccc([C@H]3CN(c4nc(-c5ccncc5F)cc(=O)n4C)CCN3)cc2)C1 | – | Active
Cn1c(N2CCO[C@@H](c3ccc(OCCCN4CCCCC4)cc3)C2)nc(-c2ccncc2F)cc1=O | – | Active
Cn1c(N2CCN[C@@H](c3ccc(N4CC[C@H](C#N)C4)cc3)C2)nc(-c2ccncc2F)cc1=O | – | Active
Cn1c(N2CCO[C@@H](c3ccc(F)cc3)C2)nc(-c2ccncc2F)c(F)c1=O | – | Active
Cn1c(N2CCO[C@@H](c3ccc(CN4CCOCC4)cc3)C2)nc(-c2ccncc2F)cc1=O | – | Active
CC(C)Oc1ccc(-c2ccc([C@H]3CN(c4nc(-c5ccncc5F)cc(=O)n4C)CCN3)cc2)cc1 | 1.2 | –
Cn1c(N2CCOC(c3ccc4c(c3)NC(=O)CO4)C2)nc(-c2ccncc2F)cc1=O (racemic) | – | Active

Further lines, results first:

IC50 [1] [nM] | inhibition [2] | Compound
4.1 | – | CC(=O)Nc1cccc([C@H]2CN(c3nc(-c4ccncc4F)cc(=O)n3C)CCO2)c1
0.51 | – | Cc1cc(C2CN(c3nc(-c4ccncc4F)cc(=O)n3C)CCO2)ccc1Br (configuration not stated)
2.7 | – | Cn1c(N2CCO[C@@H](c3ccc(N[C@@H]4CCOC4)cc3)C2)nc(-c2ccncc2F)cc1=O
4.2 | – | Cn1c(N2CCO[C@@H](c3ccc(NC(=O)C(C)(C)C)cc3)C2)nc(-c2ccncc2F)cc1=O
7.4 | – | Cn1c(N2CCO[C@@H](c3ccc(C(=O)N4CCOCC4)cc3)C2)nc(-c2ccncc2F)cc1=O
1.2 | – | COC(=O)Nc1ccc([C@H]2CN(c3nc(-c4ccncc4F)cc(=O)n3C)CCO2)cc1
0.27 | – | CN(C)CC(=O)Nc1ccc([C@H]2CN(c3nc(-c4ccncc4F)cc(=O)n3C)CCO2)cc1
0.48 | – | COc1ccc(NC(C)=O)cc1[C@H]1CN(c2nc(-c3ccncc3F)cc(=O)n2C)CCO1
2.2 | – | Cn1c(N2CCO[C@@H](c3ccc(NC(=O)C4CCCCC4)cc3)C2)nc(-c2ccncc2F)cc1=O
2.9 | – | Cn1c(N2CCO[C@@H](c3ccc(N)cc3)C2)nc(-c2ccncc2F)cc1=O
6.4 | – | CC(=O)N1CCC(Oc2ccc([C@H]3CN(c4nc(-c5ccncc5F)cc(=O)n4C)CCO3)cc2)CC1
11 | – | CN(C)C(=O)Nc1ccc([C@H]2CN(c3nc(-c4ccncc4F)cc(=O)n3C)CCO2)cc1
– | Active | CC(=O)Nc1ccc([C@H]2CN(c3nc(-c4ccncc4F)cc(=O)n3C)CCO2)cc1
